# Assay results published in ChEMBL document CHEMBL1629634, “Postantibiotic effect of tigecycline against 14 gram-positive organisms” (Antimicrob Agents Chemother, 2009).
# What was measured:
# Type in all cases: functional
# Haemophilus influenzae [1] = test: Antibacterial activity against amoxicillin, clavulanate-resistant Haemophilus influenzae expressing beta-lactamase assessed as sub-MIC effect at 0.2 times MIC concentration incubated for 1 hr by viable plate count method
# Enterobacter cloacae [2] = test: Antibacterial activity against Enterobacter cloacae assessed as post antibiotic effect
# Acinetobacter baumannii [3] = test: (§1) Antibacterial activity against Acinetobacter baumannii assessed as post-antibiotic sub-MIC effect at 0.4 times MIC concentration pretreated with 6 times MIC concentration for 1 hr followed by 1:1000 dilution by viable plate count method
# Enterococcus faecium = test: Antibacterial activity against Enterococcus faecium assessed as post antibiotic effect
# Klebsiella pneumoniae [4] = test: Antibacterial activity against Klebsiella pneumoniae assessed as sub-MIC effect at 0.4 times MIC concentration incubated for 1 hr by viable plate count method
# Streptococcus pneumoniae [5] = test: Antibacterial activity against penicillin-resistant Streptococcus pneumoniae assessed as post-antibiotic sub-MIC effect at 0.3 times MIC concentration pretreated with 10 times MIC concentration for 1 hr followed by 1:1000 dilution by viable plate count method
# Klebsiella pneumoniae [6] = test: Antibacterial activity against Klebsiella pneumoniae assessed as post-antibiotic sub-MIC effect at 0.3 times MIC concentration pretreated with 2 times MIC concentration for 1 hr followed by 1:1000 dilution by viable plate count method
# Staphylococcus aureus [7] = test: Antibacterial activity against vancomycin-sensitive methicillin-resistant Staphylococcus aureus assessed as sub-MIC effect at 0.2 times MIC concentration incubated for 1 hr by viable plate count method
# Enterobacter cloacae [8] = test: Antibacterial activity against Enterobacter cloacae assessed as post-antibiotic sub-MIC effect at 0.2 times MIC concentration pretreated with 2 times MIC concentration for 1 hr followed by 1:1000 dilution by viable plate count method
# Klebsiella pneumoniae [9] = test: Antibacterial activity against Klebsiella pneumoniae assessed as post-antibiotic sub-MIC effect at 0.2 times MIC concentration pretreated with 10 times MIC concentration for 1 hr followed by 1:1000 dilution by viable plate count method
# Streptococcus pneumoniae [10] = test: Antibacterial activity against penicillin-susceptible Streptococcus pneumoniae assessed as sub-MIC effect at 0.4 times MIC concentration incubated for 1 hr by viable plate count method
# Streptococcus pneumoniae [11] = test: Antibacterial activity against penicillin-susceptible Streptococcus pneumoniae assessed as sub-MIC effect at 0.3 times MIC concentration incubated for 1 hr by viable plate count method
# Staphylococcus aureus [12] = test: Antibacterial activity against vancomycin-intermediate methicillin-resistant Staphylococcus aureus assessed as post antibiotic effect at 6 times MIC concentration incubated for 1 hr measured after 1:1000 dilution by viable plate count method
# Enterococcus faecalis [13] = test: Antibacterial activity against vancomycin-resistant Enterococcus faecalis by macrodilution method
# Acinetobacter baumannii [14] = test: Antibacterial activity against Acinetobacter baumannii assessed as post antibiotic effect at 6 times MIC concentration incubated for 1 hr measured after 1:1000 dilution by viable plate count method
# Enterobacter cloacae [15] = test: Antibacterial activity against Enterobacter cloacae assessed as post-antibiotic sub-MIC effect at 0.3 times MIC concentration pretreated with 2 times MIC concentration for 1 hr followed by 1:1000 dilution by viable plate count method
# Streptococcus pneumoniae [16] = test: Antibacterial activity against penicillin-susceptible Streptococcus pneumoniae assessed as sub-MIC effect at 0.2 times MIC concentration incubated for 1 hr by viable plate count method
# Streptococcus pneumoniae [17] = test: Antibacterial activity against penicillin-intermediate Streptococcus pneumoniae assessed as post-antibiotic sub-MIC effect at 0.2 times MIC concentration pretreated with 10 times MIC concentration for 1 hr followed by 1:1000 dilution by viable plate count method
# Escherichia coli = test: Antibacterial activity against Escherichia coli assessed as post antibiotic effect at 6 times MIC concentration incubated for 1 hr measured after 1:1000 dilution by viable plate count method
# Klebsiella pneumoniae [18] = test: Antibacterial activity against Klebsiella pneumoniae assessed as sub-MIC effect at 0.3 times MIC concentration incubated for 1 hr by viable plate count method
# Haemophilus influenzae [19] = test: Antibacterial activity against amoxicillin, clavulanate-resistant Haemophilus influenzae expressing beta-lactamase assessed as sub-MIC effect at 0.3 times MIC concentration incubated for 1 hr by viable plate count method
# Enterococcus faecalis [20] = test: Antibacterial activity against vancomycin-sensitive Enterococcus faecalis assessed as sub-MIC effect at 0.3 times MIC concentration incubated for 1 hr by viable plate count method
# Staphylococcus aureus [21] = test: Antibacterial activity against vancomycin-intermediate methicillin-resistant Staphylococcus aureus assessed as sub-MIC effect at 0.4 times MIC concentration incubated for 1 hr by viable plate count method
# Enterobacter cloacae [22] = test: Antibacterial activity against Enterobacter cloacae by macrodilution method
# Staphylococcus aureus [23] = test: Antibacterial activity against vancomycin-sensitive methicillin-resistant Staphylococcus aureus assessed as post-antibiotic sub-MIC effect at 0.2 times MIC concentration pretreated with 6 times MIC concentration for 1 hr followed by 1:1000 dilution by viable plate count method
# Enterococcus faecalis [24] = test: Antibacterial activity against vancomycin-resistant Enterococcus faecalis assessed as sub-MIC effect at 0.3 times MIC concentration incubated for 1 hr by viable plate count method
# Haemophilus influenzae [25] = test: Antibacterial activity against beta-lactamase deficient and ampicillin-resistant Haemophilus influenzae assessed as sub-MIC effect at 0.2 times MIC concentration incubated for 1 hr by viable plate count method
# Staphylococcus aureus [26] = test: Antibacterial activity against vancomycin-intermediate methicillin-resistant Staphylococcus aureus assessed as post-antibiotic sub-MIC effect at 0.2 times MIC concentration pretreated with 10 times MIC concentration for 1 hr followed by 1:1000 dilution by viable plate count method
# Haemophilus influenzae [27] = test: Antibacterial activity against amoxicillin, clavulanate-resistant Haemophilus influenzae expressing beta-lactamase assessed as post-antibiotic sub-MIC effect at 0.2 times MIC concentration pretreated with 10 times MIC concentration for 1 hr followed by 1:1000 dilution by viable plate count method
# Acinetobacter baumannii [28] = test: Antibacterial activity against Acinetobacter baumannii by macrodilution method
# Enterobacter cloacae [29] = test: Antibacterial activity against Enterobacter cloacae assessed as post-antibiotic sub-MIC effect at 0.4 times MIC concentration pretreated with 2 times MIC concentration for 1 hr followed by 1:1000 dilution by viable plate count method
# Streptococcus pneumoniae [30] = test: Antibacterial activity against penicillin-resistant Streptococcus pneumoniae assessed as post-antibiotic sub-MIC effect at 0.2 times MIC concentration pretreated with 10 times MIC concentration for 1 hr followed by 1:1000 dilution by viable plate count method
# Acinetobacter baumannii [31] = test: Antibacterial activity against multidrug-resistant Acinetobacter baumannii producing OXA-24 and OXA-51 beta-lactamases assessed as post antibiotic effect at 10 times MIC concentration incubated for 1 hr measured after 1:1000 dilution by viable plate count method
# Acinetobacter baumannii [32] = test: as §1, with “against multidrug-resistant” for “against”, “baumannii producing OXA-24 and OXA-51 beta-lactamases” for “baumannii”, “0.3” for “0.4”, “10” for “6”
# Haemophilus influenzae [33] = test: Antibacterial activity against beta-lactamase deficient ampicillin-resistant Haemophilus influenzae assessed as post-antibiotic sub-MIC effect at 0.4 times MIC concentration pretreated with 10 times MIC concentration for 1 hr followed by 1:1000 dilution by viable plate count method
# Acinetobacter baumannii [34] = test: Antibacterial activity against multidrug-resistant Acinetobacter baumannii producing OXA-24 and OXA-51 beta-lactamases assessed as post antibiotic effect at 2 times MIC concentration incubated for 1 hr measured after 1:1000 dilution by viable plate count method
smiles,measurement,setting,value
CN(C)c1cc(NC(=O)CNC(C)(C)C)c(O)c2c1C[C@H]1C[C@H]3[C@H](N(C)C)C(O)=C(C(N)=O)C(=O)[C@@]3(O)C(O)=C1C2=O [TIGECYCLINE],PAE,Haemophilus influenzae [1],0 h
same,PAE,Enterobacter cloacae [2],2 h
same,PAE,Acinetobacter baumannii [3],> 11.2 h
same,PAE,Enterococcus faecium,2.5 h
same,PAE,Klebsiella pneumoniae [4],0.7 h
same,PAE,Streptococcus pneumoniae [5],10.2 h
same,PAE,Klebsiella pneumoniae [6],2 h
same,PAE,Staphylococcus aureus [7],0.2 h
same,PAE,Enterobacter cloacae [8],2.9 h
same,PAE,Klebsiella pneumoniae [9],1.9 h
same,PAE,Streptococcus pneumoniae [10],0.8 h
same,PAE,Streptococcus pneumoniae [11],0 h
same,PAE,Staphylococcus aureus [12],4 h
same,MIC,Enterococcus faecalis [13],0.06 µg/mL
same,PAE,Acinetobacter baumannii [14],1.8 h
same,PAE,Enterobacter cloacae [15],4.9 h
same,PAE,Streptococcus pneumoniae [16],0 h
same,PAE,Streptococcus pneumoniae [17],6.1 h
same,PAE,Escherichia coli,1.9 h
same,PAE,Klebsiella pneumoniae [18],0.4 h
same,PAE,Haemophilus influenzae [19],0.8 h
same,PAE,Enterococcus faecalis [20],0.2 h
same,PAE,Staphylococcus aureus [21],2.9 h
same,MIC,Enterobacter cloacae [22],0.5 µg/mL
same,PAE,Staphylococcus aureus [23],3.7 h
same,PAE,Enterococcus faecalis [24],0.3 h
same,PAE,Haemophilus influenzae [25],0.8 h
same,PAE,Staphylococcus aureus [26],6.6 h
same,PAE,Haemophilus influenzae [27],3.9 h
same,MIC,Acinetobacter baumannii [28],0.12 µg/mL
same,PAE,Enterobacter cloacae [29],6.9 h
same,PAE,Streptococcus pneumoniae [30],6.7 h
same,PAE,Acinetobacter baumannii [31],1.3 h
same,PAE,Acinetobacter baumannii [32],2.2 h
same,PAE,Haemophilus influenzae [33],2.8 h
same,PAE,Acinetobacter baumannii [34],0.7 h
